Measurements: patent EP0562731A1, “Substituted pyridinesulfonamide compounds or their salts, process for preparing the same, and herbicides containing the same” (ISHIHARA SANGYO KAISHA, Ltd., priority 1992, dated 1993)

Experiments:
Test in all cases: Test Example 1: foliar application pot test, visual growth control rating
Format in all cases: in vivo
Design in all cases: key: 1: the same as in an untreated plot; 10: perfect growth control
[1] = test system: slender amaranth (Amaranthus viridis); conditions: wettable powder, observed 20 to 31 days after application
Text: (§1) 1/1,500 are [are (a) = 100 m²] pots were filled with upland farming soil, which in the pots was then sown with a variety of plants. The plants grown will be enumerated below.
(§2) When each plant reached a given growth stage (a 1.2- to 3.0-leaf stage for rice, primary leaf to a 0.7-leaf stage for soybean, 2.1- to 3.6-leaf stage for corn, cotyledon to 0.7-leaf stage for cotton, 2.0- to 3.0-leaf stage for wheat, 0.3- to 3.4-leaf stage for cocklebur, 0.3- to 1.6-leaf stage for morning glory, 0.1- to 1.3-leaf stage for prickly sida, 0.1- to 1.3-leaf stage for slender amaranth, 1.5- to 3.2-leaf stage for barnyard glass, and 1.2- to 3.0-leaf stage for large crabgrass), a predetermined amount of the herbicide of the present invention in the form of a wettable powder, weighed out, diluted with 5 ℓ/a of water and admixed with 0.2 or 0.1 vol%, based on the resulting composition, of an agricultural spreader, was foliarly applied to the plant with a small spray gun. The progress of growth of the plant was visually observed 20 to 31 days after the foliar application to evaluate the degree of growth control according to 10 ratings (1: the same as in an untreated plot - 10: perfect growth control).

[2] = test system: barnyard grass (Echinochloa crus-galli); conditions: wettable powder, observed 20 to 31 days after application
Text: as §1, §2

rice (Oryza sativa) = conditions: wettable powder, observed 20 to 31 days after application
Text: as §1, §2

[3] = test system: prickly sida (Sida spinosa); conditions: wettable powder, observed 20 to 31 days after application
Text: as §1, §2

[4] = test system: cocklebur (Xanthium strumarium); conditions: wettable powder, observed 20 to 31 days after application
Text: as §1, §2

corn (Zea mays) = conditions: wettable powder, observed 20 to 31 days after application
Text: as §1, §2

wheat (Triticum) = conditions: wettable powder, observed 20 to 31 days after application
Text: as §1, §2

[5] = test system: large crabgrass (Digitaria adscendens); conditions: wettable powder, observed 20 to 31 days after application
Text: as §1, §2

soybean (Glycine max) = conditions: wettable powder, observed 20 to 31 days after application
Text: as §1, §2

[6] = test system: morning glory (Ipomoea purpurea); conditions: 1.25 g/a active ingredient, wettable powder, observed 20 to 31 days after application
Text: as §1, §2

SMILES	degree of growth control, AM ([1]; 0.31 g/a active ingredient)	degree of growth control, AM ([1]; 1.25 g/a active ingredient)	degree of growth control, EC ([2]; 0.31 g/a active ingredient)	degree of growth control, EC ([2]; 1.25 g/a active ingredient)	degree of growth control, OR (rice (Oryza sativa); 0.31 g/a active ingredient)	degree of growth control, OR (rice (Oryza sativa); 1.25 g/a active ingredient)	degree of growth control, SI ([3]; 0.31 g/a active ingredient)	degree of growth control, SI ([3]; 1.25 g/a active ingredient)	degree of growth control, XA ([4]; 0.31 g/a active ingredient)	degree of growth control, XA ([4]; 1.25 g/a active ingredient)	degree of growth control, ZE (corn (Zea mays); 0.31 g/a active ingredient)	degree of growth control, ZE (corn (Zea mays); 1.25 g/a active ingredient)	degree of growth control, TR (wheat (Triticum); 0.31 g/a active ingredient)	degree of growth control, TR (wheat (Triticum); 1.25 g/a active ingredient)	degree of growth control, DI ([5]; 0.31 g/a active ingredient)	degree of growth control, DI ([5]; 1.25 g/a active ingredient)	degree of growth control, GL (soybean (Glycine max); 0.31 g/a active ingredient)	degree of growth control, GL (soybean (Glycine max); 1.25 g/a active ingredient)	degree of growth control, IP [6]
CCN(c1cccc(S(=O)(=O)NC(=O)Nc2nc(OC)nc(OC)n2)n1)S(=O)(=O)C(C)Cl (racemic) [Compound No. 55, 6-[[N-(1-chloroethylsulfonyl)-N-ethyl]amino]-N-[[(4,6-dimethoxytriazin-2-yl)amino]carbonyl]-2-pyridinesulfonamide]	6	6	10	10	9	9	6	6	10	10	10	10							
CCN(c1cccc(S(=O)(=O)NC(=O)Nc2nc(C)nc(OC)n2)n1)S(=O)(=O)C(C)F (racemic) [compound 58]													2	2	7	7	1	1	
CCC(C)N(c1cccc(S(=O)(=O)NC(=O)Nc2nc(C)nc(OC)n2)n1)S(=O)(=O)C(C)CC (racemic) [compound 81]		3		6		5		2		9		2		2		3		6	6
CCCN(c1cccc(S(=O)(=O)NC(=O)Nc2nc(C)nc(OC)n2)n1)S(=O)(=O)CC [Compound No. 3]		10		9		6		6		8		8		4		6		3	5
CCCCN(c1cccc(S(=O)(=O)NC(=O)Nc2nc(C)nc(OC)n2)n1)S(=O)(=O)C(C)C [Compound No. 4]		9		7		8		6		9		10		2		3		4	6
CCS(=O)(=O)N(c1cccc(S(=O)(=O)NC(=O)Nc2nc(C)nc(OC)n2)n1)C(C)C [compound 6]		9		6		6		6		7		10		3		4		3	8
CCS(=O)(=O)N(c1cccc(S(=O)(=O)NC(=O)Nc2nc(OC)nc(OC)n2)n1)C(C)C [compound 7]		9		2		3		3		7		10		2		2		3	6
CCCN(c1cccc(S(=O)(=O)NC(=O)Nc2nc(OC)nc(OC)n2)n1)S(=O)(=O)CC [compound 8]		7		5		3		3		6		5		3		5		4	4
CCCCN(c1cccc(S(=O)(=O)NC(=O)Nc2nc(C)nc(OC)n2)n1)S(C)(=O)=O [compound 32]		6		3		3		4		6		3		2		6		3	5
COc1nc(C)nc(NC(=O)NS(=O)(=O)c2cccc(N(CC(C)C)S(C)(=O)=O)n2)n1 [compound 33]		6		3		6		3		3		2		3		6		3	4
CCN(c1cccc(S(=O)(=O)NC(=O)Nc2nc(C)nc(OC)n2)n1)S(=O)(=O)CC [compound 37]		9		4		2		3		4		3		1		2		2	3
CCCS(=O)(=O)N(C)c1cccc(S(=O)(=O)NC(=O)Nc2nc(C)nc(OC)n2)n1 [compound 39]		9		3		3		3		5		3		3		4		4	5
CCCCS(=O)(=O)N(CCC)c1cccc(S(=O)(=O)NC(=O)Nc2nc(C)nc(OC)n2)n1 [compound 42]		10		3		6		3		6		3		4		5		4	4
